Source: US9446039B2, “Aminoheteroaryl compounds as MTH1 inhibitors” (CEMM—FORSCHUNGSZENTRUM FÜR MOLEKULARE MEDIZIN GMBH, priority 2012, dated 2016)

Tests used:
Type in all cases: binding
[1] = molecular target: T1, SW480 colon carcinoma cells lysate proteins (Homo sapiens, UniProt Q7RTS7); conditions: PreyGene KRT74; SW480 cells
T1 sequence (Q7RTS7 1-529): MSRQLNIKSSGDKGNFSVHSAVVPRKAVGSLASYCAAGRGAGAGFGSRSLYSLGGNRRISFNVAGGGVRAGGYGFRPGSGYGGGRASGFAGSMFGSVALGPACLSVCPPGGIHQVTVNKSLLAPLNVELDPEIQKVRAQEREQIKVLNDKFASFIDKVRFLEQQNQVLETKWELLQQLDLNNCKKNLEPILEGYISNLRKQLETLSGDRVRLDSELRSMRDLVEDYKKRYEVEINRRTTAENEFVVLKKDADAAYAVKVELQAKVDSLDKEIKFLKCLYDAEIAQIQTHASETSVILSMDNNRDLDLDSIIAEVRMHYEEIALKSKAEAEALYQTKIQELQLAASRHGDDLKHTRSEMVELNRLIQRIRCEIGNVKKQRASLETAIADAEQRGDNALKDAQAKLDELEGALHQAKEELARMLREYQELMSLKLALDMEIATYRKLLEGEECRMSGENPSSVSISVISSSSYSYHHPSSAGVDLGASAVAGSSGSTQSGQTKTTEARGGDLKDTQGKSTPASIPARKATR

[2] = molecular target: SW480 colon carcinoma cells lysate proteins (Homo sapiens, UniProt P23284); conditions: PreyGene PPIB
[3] = molecular target: T2, SW480 colon carcinoma cells lysate proteins (Homo sapiens, UniProt Q9H910); conditions: PreyGene HN1L
T2 sequence (Q9H910 1-190): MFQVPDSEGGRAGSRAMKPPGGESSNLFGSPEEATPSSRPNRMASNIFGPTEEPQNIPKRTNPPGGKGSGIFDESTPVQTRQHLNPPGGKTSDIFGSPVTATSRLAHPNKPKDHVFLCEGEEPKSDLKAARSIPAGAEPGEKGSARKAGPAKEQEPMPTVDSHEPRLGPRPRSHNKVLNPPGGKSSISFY

[4] = molecular target: T3, SW480 colon carcinoma cells lysate proteins (Homo sapiens, UniProt Q92973); conditions: PreyGene TNPO1; SW480 cells
T3 sequence (Q92973 1-898): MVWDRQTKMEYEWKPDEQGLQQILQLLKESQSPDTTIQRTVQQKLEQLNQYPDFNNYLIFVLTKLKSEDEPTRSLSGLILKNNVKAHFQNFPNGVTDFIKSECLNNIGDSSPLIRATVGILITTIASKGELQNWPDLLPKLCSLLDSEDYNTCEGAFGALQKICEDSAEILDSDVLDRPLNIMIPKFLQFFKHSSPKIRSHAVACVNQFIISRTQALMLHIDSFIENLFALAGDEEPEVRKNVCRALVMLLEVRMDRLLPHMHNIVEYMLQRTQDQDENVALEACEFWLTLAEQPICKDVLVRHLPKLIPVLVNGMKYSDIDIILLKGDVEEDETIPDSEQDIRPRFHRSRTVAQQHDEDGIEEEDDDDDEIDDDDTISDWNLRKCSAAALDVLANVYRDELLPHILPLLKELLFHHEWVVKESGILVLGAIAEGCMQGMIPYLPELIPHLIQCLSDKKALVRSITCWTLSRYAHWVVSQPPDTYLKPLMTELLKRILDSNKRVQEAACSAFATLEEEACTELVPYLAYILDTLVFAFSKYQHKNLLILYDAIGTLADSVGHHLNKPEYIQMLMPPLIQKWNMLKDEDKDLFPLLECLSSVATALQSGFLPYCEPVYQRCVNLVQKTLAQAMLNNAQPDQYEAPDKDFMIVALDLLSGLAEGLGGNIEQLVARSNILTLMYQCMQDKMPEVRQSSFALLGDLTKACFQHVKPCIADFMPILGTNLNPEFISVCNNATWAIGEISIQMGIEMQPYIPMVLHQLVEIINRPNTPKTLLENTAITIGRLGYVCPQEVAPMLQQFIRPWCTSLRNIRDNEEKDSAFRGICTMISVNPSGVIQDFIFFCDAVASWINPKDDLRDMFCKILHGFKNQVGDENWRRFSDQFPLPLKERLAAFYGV

[5] = molecular target: T4, SW480 colon carcinoma cells lysate proteins (Homo sapiens, UniProt P30101); conditions: PreyGene PDIA3
T4 sequence (P30101 25-505): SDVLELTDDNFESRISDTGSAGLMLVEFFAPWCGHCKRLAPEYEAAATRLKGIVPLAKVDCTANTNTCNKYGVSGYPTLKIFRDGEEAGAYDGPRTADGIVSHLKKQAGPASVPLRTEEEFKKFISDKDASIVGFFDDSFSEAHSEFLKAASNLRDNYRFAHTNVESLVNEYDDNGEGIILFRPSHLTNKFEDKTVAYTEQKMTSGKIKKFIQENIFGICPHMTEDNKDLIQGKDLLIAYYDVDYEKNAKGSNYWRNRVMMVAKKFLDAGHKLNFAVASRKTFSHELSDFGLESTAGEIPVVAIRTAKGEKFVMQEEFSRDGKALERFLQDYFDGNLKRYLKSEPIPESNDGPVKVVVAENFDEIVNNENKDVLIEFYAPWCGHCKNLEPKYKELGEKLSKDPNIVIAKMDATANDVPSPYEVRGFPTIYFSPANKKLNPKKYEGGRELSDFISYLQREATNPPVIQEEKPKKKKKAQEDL

[6] = molecular target: SW480 colon carcinoma cells lysate proteins (Homo sapiens, UniProt P26038); conditions: PreyGene MSN
Chain of SW480 colon carcinoma cells lysate proteins (Homo sapiens, UniProt P26038) (P26038 whole entry): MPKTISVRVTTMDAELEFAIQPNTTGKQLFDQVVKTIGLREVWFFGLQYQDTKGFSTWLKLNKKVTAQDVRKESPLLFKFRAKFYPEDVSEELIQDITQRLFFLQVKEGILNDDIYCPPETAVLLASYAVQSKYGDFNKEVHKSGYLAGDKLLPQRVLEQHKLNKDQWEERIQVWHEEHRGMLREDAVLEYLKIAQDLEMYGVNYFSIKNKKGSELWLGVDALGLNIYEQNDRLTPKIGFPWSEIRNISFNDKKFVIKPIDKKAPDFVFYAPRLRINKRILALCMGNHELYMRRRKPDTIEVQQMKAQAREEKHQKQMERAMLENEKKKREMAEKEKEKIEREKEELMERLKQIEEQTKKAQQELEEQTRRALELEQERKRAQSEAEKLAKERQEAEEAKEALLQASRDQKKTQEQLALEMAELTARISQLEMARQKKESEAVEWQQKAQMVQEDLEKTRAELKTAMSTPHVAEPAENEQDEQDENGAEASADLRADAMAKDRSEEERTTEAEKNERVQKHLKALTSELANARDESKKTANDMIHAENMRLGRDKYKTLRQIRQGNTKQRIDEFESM

Chain of SW480 colon carcinoma cells lysate proteins (Homo sapiens, UniProt P23284) (P23284 34-216): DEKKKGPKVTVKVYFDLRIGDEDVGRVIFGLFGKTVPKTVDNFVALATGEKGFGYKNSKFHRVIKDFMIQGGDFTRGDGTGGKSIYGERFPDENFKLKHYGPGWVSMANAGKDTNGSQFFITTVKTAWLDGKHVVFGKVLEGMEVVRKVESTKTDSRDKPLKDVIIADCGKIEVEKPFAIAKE

`C[C@H](Oc1cc(-c2cnn(C3CCNCC3)c2)cnc1N)c1c(Cl)ccc(F)c1Cl` [(5)-crizotinib] was tested, and the AvgP [1] was 0, the “SC.Exp. 1-1” value [1] was 1 and the “SC.Exp. 1-2” value [1] was 1. For the same compound, the “SC.Exp. 2-1” value [1] was 0, the “SC.Exp. 2-2” value [1] was 0 and the “SC.Exp. Sum” value [1] was 2. The AvgP [2] was 0.381, the “SC.Exp. 1-1” value [2] was 2 and the “SC.Exp. 1-2” value [2] was 2. The “SC.Exp. 2-1” value [2] was 0, the “SC.Exp. 2-2” value [2] was 0 and the “Sum (SC.Exp.)” value [2] was 4. The AvgP [3] was 0.1898, the “SC.Exp. 1-1” value [3] was 0 and the “SC.Exp. 1-2” value [3] was 2. For the same compound, the “SC.Exp. 2-1” value [3] was 0, the “SC.Exp. 2-2” value [3] was 0 and the “Sum (SC.Exp.)” value [3] was 2. The AvgP [4] was 0, the “SC.Exp. 1-1” value [4] was 9 and the “SC.Exp. 1-2” value [4] was 7. For the same compound, the “SC.Exp. 2-1” value [4] was 6, the “SC.Exp. 2-2” value [4] was 6 and the “SC.Exp. Sum” value [4] was 28. The AvgP [5] was 0.4952, the “SC.Exp. 1-1” value [5] was 8 and the “SC.Exp. 1-2” value [5] was 7. For the same compound, the “SC.Exp. 2-1” value [5] was 0, the “SC.Exp. 2-2” value [5] was 0 and the “Sum (SC.Exp.)” value [5] was 15. For the same compound, the AvgP [6] was 0.2291, the “SC.Exp. 1-1” value [6] was 11 and the “SC.Exp. 1-2” value [6] was 11. For the same compound, the “SC.Exp. 2-1” value [6] was 0, the “SC.Exp. 2-2” value [6] was 0 and the “Sum (SC.Exp.)” value [6] was 22.
